# Reference: the OligoGym collection
# HELM strings list units from the 5' end as sugar, base in round brackets, then linkage (d deoxyribose, r ribose, m 2'-O-methyl, p phosphodiester). Strings are as the collection lists them; they lack the last nucleoside at the 3' end of the tested compound. [moe] = 2'-O-(2-methoxyethyl) (MOE); [sp] = phosphorothioate linkage; [m5C] = 5-methylcytosine
# Molecular target: UBE3A-ATS
# Test: mouse, dose not given
# Details: ASO
row,Substance,3 h FOB score
1,RNA1{[moe](T)[sp].[moe](G)p.[moe](T)p.[moe](T)p.[moe](G)p.d(T)[sp].d(A)[sp].d(T)[sp].d(G)[sp].d([m5C])[sp].d(A)[sp].d(G)[sp].d(G)[sp].d(T)[sp].d(T)[sp].[moe]([m5C])p.[moe](A)p.[moe](T)[sp].[moe]([m5C])}$$$$ (last 3' nucleoside missing),4.5 score 0-7
2,RNA1{[moe](T)[sp].[moe](G)p.[moe](T)p.[moe]([m5C])p.[moe](G)p.d(A)[sp].d(G)[sp].d(A)[sp].d(A)[sp].d([m5C])[sp].d(T)[sp].d([m5C])[sp].d(A)[sp].d(A)[sp].d(A)[sp].[moe](A)p.[moe](G)p.[moe](G)[sp].[moe](T)}$$$$ (last 3' nucleoside missing),4.5 score 0-7
3,RNA1{[moe](T)[sp].[moe](G)p.[moe](T)p.[moe]([m5C])p.[moe](T)p.d([m5C])[sp].d(T)[sp].d(A)[sp].d(A)[sp].d(T)[sp].d([m5C])[sp].d([m5C])[sp].d(T)[sp].d(A)[sp].d(T)[sp].[moe](T)p.[moe]([m5C])p.[moe]([m5C])[sp].[moe](A)}$$$$ (last 3' nucleoside missing),0 score 0-7
4,RNA1{[moe](T)[sp].[moe](G)p.[moe]([m5C])p.[moe](A)[sp].d(T)[sp].d(A)[sp].d([m5C])[sp].d([m5C])[sp].d([m5C])[sp].d(A)[sp].d(G)[sp].d(G)[sp].[moe](G)p.[moe](T)p.[moe](A)p.[moe](G)[sp].[moe](G)}$$$$ (last 3' nucleoside missing),0 score 0-7
5,RNA1{[moe](T)[sp].[moe](G)p.[moe]([m5C])p.[moe](A)p.[moe](T)[sp].d(A)[sp].d([m5C])[sp].d([m5C])[sp].d([m5C])[sp].d(A)[sp].d(G)[sp].d(G)[sp].d(G)[sp].[moe](T)p.[moe](A)p.[moe](G)[sp].[moe](G)}$$$$ (last 3' nucleoside missing),1 score 0-7
6,RNA1{[moe](T)[sp].[moe](G)p.[moe]([m5C])p.[moe](A)p.[moe](T)p.[moe](A)[sp].d([m5C])[sp].d([m5C])[sp].d([m5C])[sp].d(A)[sp].d(G)[sp].d(G)[sp].d(G)[sp].d(T)[sp].[moe](A)p.[moe](G)[sp].[moe](G)}$$$$ (last 3' nucleoside missing),2 score 0-7
7,RNA1{[moe](T)[sp].[moe](G)p.[moe]([m5C])p.[moe](A)p.[moe](T)p.[moe](A)p.d([m5C])[sp].d([m5C])[sp].d([m5C])[sp].d(A)[sp].d(G)[sp].d(G)[sp].d(G)[sp].d(T)[sp].d(A)[sp].d(G)[sp].[moe](G)p.[moe](A)[sp].[moe](T)}$$$$ (last 3' nucleoside missing),4 score 0-7
8,RNA1{[moe](T)[sp].[moe](G)p.[moe]([m5C])p.[moe](A)p.[moe](T)p.d(A)[sp].d(A)[sp].d(A)[sp].d(G)[sp].d([m5C])[sp].d([m5C])[sp].d(A)[sp].d(G)[sp].d(G)[sp].d([m5C])[sp].[moe]([m5C])p.[moe](A)p.[moe](G)[sp].[moe](G)}$$$$ (last 3' nucleoside missing),2.2 score 0-7
9,RNA1{[moe](T)[sp].[moe](G)p.[moe]([m5C])p.[moe](A)p.[moe](T)p.d(A)[sp].d([m5C])[sp].d([m5C])[sp].d([m5C])[sp].d(A)[sp].d(G)[sp].d(G)[sp].d(G)[sp].d(T)[sp].d(A)[sp].[moe](G)p.[moe](G)p.[moe](A)[sp].[moe](T)}$$$$ (last 3' nucleoside missing),2 score 0-7
10,RNA1{[moe](T)[sp].[moe](G)p.[moe]([m5C])p.[moe](A)p.[moe](T)p.d(G)[sp].d(T)[sp].d(G)[sp].d(G)[sp].d(G)[sp].d([m5C])[sp].d([m5C])[sp].d(T)[sp].d([m5C])[sp].d(T)[sp].[moe](A)p.[moe](T)p.[moe](T)[sp].[moe](A)}$$$$ (last 3' nucleoside missing),4 score 0-7
11,RNA1{[moe](T)[sp].[moe](G)p.[moe]([m5C])p.[moe](A)p.d(T)[sp].d(A)[sp].d([m5C])[sp].d([m5C])[sp].d([m5C])[sp].d(A)[sp].d(G)[sp].d(G)[sp].d(G)[sp].d(T)[sp].[moe](A)p.[moe](G)p.[moe](G)p.[moe](A)[sp].[moe](T)}$$$$ (last 3' nucleoside missing),1 score 0-7
12,RNA1{[moe](T)[sp].[moe](G)p.[moe]([m5C])p.[moe](T)[sp].d(T)[sp].d([m5C])[sp].d(A)[sp].d([m5C])[sp].d([m5C])[sp].d(A)[sp].d(T)[sp].d(T)[sp].[moe](T)p.[moe](T)p.[moe](G)p.[moe](A)[sp].[moe]([m5C])}$$$$ (last 3' nucleoside missing),0 score 0-7
13,RNA1{[moe](T)[sp].[moe](G)p.[moe]([m5C])p.[moe](T)[sp].d([m5C])[sp].d(A)[sp].d(G)[sp].d(T)[sp].d(T)[sp].d(A)[sp].d(G)[sp].d(G)[sp].[moe](T)p.[moe](T)p.[moe](A)p.[moe](G)[sp].[moe](T)}$$$$ (last 3' nucleoside missing),7 score 0-7
14,RNA1{[moe](T)[sp].[moe](G)p.[moe]([m5C])p.[moe](T)p.[moe](G)p.[moe](A)p.d(T)[sp].d([m5C])[sp].d(A)[sp].d([m5C])[sp].d(A)[sp].d(T)[sp].d(T)[sp].d(A)[sp].d([m5C])[sp].d([m5C])[sp].[moe]([m5C])p.[moe](A)[sp].[moe](T)}$$$$ (last 3' nucleoside missing),1 score 0-7
15,RNA1{[moe](T)[sp].[moe](G)p.[moe]([m5C])p.[moe](T)p.[moe](G)p.d(A)[sp].d(T)[sp].d([m5C])[sp].d(A)[sp].d([m5C])[sp].d(A)[sp].d(T)[sp].d(T)[sp].d(A)[sp].d([m5C])[sp].[moe]([m5C])p.[moe]([m5C])p.[moe](A)[sp].[moe](T)}$$$$ (last 3' nucleoside missing),0 score 0-7
16,RNA1{[moe](T)[sp].[moe](G)p.[moe]([m5C])p.[moe](T)p.[moe](T)p.[moe]([m5C])p.d(A)[sp].d([m5C])[sp].d([m5C])[sp].d(A)[sp].d(T)[sp].d(T)[sp].d(T)[sp].d(T)[sp].d(G)[sp].d(A)[sp].[moe]([m5C])p.[moe]([m5C])[sp].[moe](T)}$$$$ (last 3' nucleoside missing),0 score 0-7
17,RNA1{[moe](T)[sp].[moe](G)p.[moe]([m5C])p.[moe](T)p.[moe](T)p.d([m5C])[sp].d(A)[sp].d([m5C])[sp].d([m5C])[sp].d(A)[sp].d(T)[sp].d(T)[sp].d(T)[sp].d(T)[sp].d(G)[sp].[moe](A)p.[moe]([m5C])p.[moe]([m5C])[sp].[moe](T)}$$$$ (last 3' nucleoside missing),1 score 0-7
18,RNA1{[moe](T)[sp].[moe](G)p.[moe]([m5C])p.[moe](T)p.[moe]([m5C])[sp].d(A)[sp].d(G)[sp].d(T)[sp].d(T)[sp].d(A)[sp].d(G)[sp].d(G)[sp].d(T)[sp].[moe](T)p.[moe](A)p.[moe](G)[sp].[moe](T)}$$$$ (last 3' nucleoside missing),6.3 score 0-7
19,RNA1{[moe](T)[sp].[moe](G)p.[moe]([m5C])p.[moe](T)p.[moe]([m5C])p.[moe](A)[sp].d(G)[sp].d(T)[sp].d(T)[sp].d(A)[sp].d(G)[sp].d(G)[sp].d(T)[sp].d(T)[sp].[moe](A)p.[moe](G)[sp].[moe](T)}$$$$ (last 3' nucleoside missing),5.7 score 0-7
20,RNA1{[moe](T)[sp].[moe](G)p.[moe]([m5C])p.[moe](T)p.[moe]([m5C])p.[moe](A)p.d(G)[sp].d(T)[sp].d(T)[sp].d(A)[sp].d(G)[sp].d(G)[sp].d(T)[sp].d(T)[sp].d(A)[sp].d(G)[sp].[moe](T)p.[moe](G)[sp].[moe]([m5C])}$$$$ (last 3' nucleoside missing),4 score 0-7
21,RNA1{[moe](T)[sp].[moe](G)p.[moe]([m5C])p.[moe](T)p.[moe]([m5C])p.d(A)[sp].d(G)[sp].d(T)[sp].d(T)[sp].d(A)[sp].d(G)[sp].d(G)[sp].d(T)[sp].d(T)[sp].d(A)[sp].[moe](G)p.[moe](T)p.[moe](G)[sp].[moe]([m5C])}$$$$ (last 3' nucleoside missing),4.3 score 0-7
22,RNA1{[moe](T)[sp].[moe](G)p.[moe]([m5C])p.[moe](T)p.d(G)[sp].d(A)[sp].d(T)[sp].d([m5C])[sp].d(A)[sp].d([m5C])[sp].d(A)[sp].d(T)[sp].d(T)[sp].d(A)[sp].[moe]([m5C])p.[moe]([m5C])p.[moe]([m5C])p.[moe](A)[sp].[moe](T)}$$$$ (last 3' nucleoside missing),0 score 0-7
23,RNA1{[moe](T)[sp].[moe](G)p.[moe]([m5C])p.[moe](T)p.d(T)[sp].d([m5C])[sp].d(A)[sp].d([m5C])[sp].d([m5C])[sp].d(A)[sp].d(T)[sp].d(T)[sp].d(T)[sp].d(T)[sp].[moe](G)p.[moe](A)p.[moe]([m5C])p.[moe]([m5C])[sp].[moe](T)}$$$$ (last 3' nucleoside missing),0 score 0-7
24,RNA1{[moe](T)[sp].[moe](G)p.[moe]([m5C])p.[moe](T)p.d([m5C])[sp].d(A)[sp].d(G)[sp].d(T)[sp].d(T)[sp].d(A)[sp].d(G)[sp].d(G)[sp].d(T)[sp].d(T)[sp].[moe](A)p.[moe](G)p.[moe](T)p.[moe](G)[sp].[moe]([m5C])}$$$$ (last 3' nucleoside missing),4 score 0-7
25,RNA1{[moe](T)[sp].[moe](G)p.[moe]([m5C])p.[moe]([m5C])p.[moe](T)p.d(T)[sp].d(T)[sp].d([m5C])[sp].d(T)[sp].d(A)[sp].d(T)[sp].d(T)[sp].d(T)[sp].d([m5C])[sp].d(A)[sp].[moe](G)p.[moe](A)p.[moe]([m5C])[sp].[moe]([m5C])}$$$$ (last 3' nucleoside missing),2.7 score 0-7
26,RNA1{[moe](T)[sp].[moe](T)p.[moe](A)p.[moe](A)p.[moe]([m5C])p.d(T)[sp].d(G)[sp].d([m5C])[sp].d(T)[sp].d(T)[sp].d([m5C])[sp].d(A)[sp].d([m5C])[sp].d([m5C])[sp].d(A)[sp].[moe](T)p.[moe](T)p.[moe](T)[sp].[moe](T)}$$$$ (last 3' nucleoside missing),1 score 0-7
27,RNA1{[moe](T)[sp].[moe](T)p.[moe](A)p.[moe](G)p.[moe](G)p.[moe](T)p.d([m5C])[sp].d(A)[sp].d(A)[sp].d([m5C])[sp].d([m5C])[sp].d(A)[sp].d(A)[sp].d(T)[sp].d(T)[sp].d(T)[sp].[moe](G)p.[moe]([m5C])[sp].[moe](T)}$$$$ (last 3' nucleoside missing),0 score 0-7
